Experimental data as given in patent US5776892A, “Anti-inflammatory peptides” (Curative Health Services, Inc., priority 1994, dated 1998).
Several values for one entry are separate records, joined by “and”; a condition that tells them apart may be missing. Equal entries are not always repeated. No end group written: not given here.

Tested on: arachidonic acid induced inflammation in mouse ear
Test: Mouse ear model, arachidonic acid (AA) induced inflammation, ear thickness
Type: in vivo
Conditions: for % Reduction of Ear Swelling / Ear Thickness: Table I, sc Alzet minipump
Protocol: The anti-inflammatory properties of CT-112 (SEQ. ID NO: 1) were assessed using a standardized assay for anti-inflammatory activity, i.e., the mouse ear model in which arachidonic acid (AA) is used to induce an inflammatory reaction (Young et al., 1984, J. Invest. Dermatol. 82:367-371; Doherty, et al., 1988, J. Invest. Dermatol. 91:298-302).
Female mice (C57BL/6UAF, Charles River Breeding Laboratories, approximately 15-18 g) were obtained and acclimated for 2 weeks prior to use. The animals were approximately 14 weeks old at the start of the study.
To prepare minipumps for implantation, CT-112 (SEQ. ID NO: 1) was dissolved in PBS. The material was loaded into Alzet minipumps set to deliver 0.05 (5 animals), 0.1 (10 animals), 1 (10 animals), or 2.5 (5 animals) mg of CT-112 (SEQ. ID NO: 1) per animal per day. Minipumps for implantation into control animals contained only PBS. As a positive control, one set of 10 mice received 100 mg/kg of phenidone, a potent 5-lipoxygenase inhibitor which acts as an anti-inflammatory agent, 15 min prior to challenge with AA.
For subcutaneous implantation of minipumps, animals were anesthetized with Ketamine/Xylazine. The Ketamine (Aveco Lot #440140) was injected at 80 mg/kg and the Xylazine (Rugby Laboratories Lot #26040-B) at 16 mg/kg and the Alzet pumps were implanted subcutaneously in the dorsothoracic area. Animals were allowed to recover and then housed and given food and water ad libitum for 5 days.
On the sixth day following pump implantation, 0.01 ml of AA was applied to the inner and outer surfaces of the right ear by means of an automatic microliter pipette. One hr following AA application, the mice were sacrificed and ear thickness was measured with a Mitutoyo No. 7300 Gauge Caliper. The left ears were also measured as an internal control.
Mice were implanted with Alzet mini-pumps set to deliver 60 mg/kg/day for either 7, 3, or 1 days. A separate group of 5 mice received 3 intraperitoneal injections of CT-112 (60 mg/kg/injection) at 24, 1 and 0.25 hr prior to AA challenge. CT-112 (SEQ. ID NO: 1) was prepared for injection by dissolving the compound in Dulbecco's PBS to give a final CT-112 (SEQ. ID NO: 1) concentration of 5 mg/ml. The control mice were implanted with Alzet minipumps that delivered PBS for 7 days. The AA challenge was the same as described supra in Example 7.
Administration of CT-112 (SEQ. ID NO: 1) (60 mg/kg/injection) via multiple intraperitoneal injections was performed at the following times prior to AA challenge:
In addition, the effect of a single administration of CT-112 (SEQ. ID NO: 1) (60 mg/kg) by intraperitoneal injection was performed at either 1 or 3 hr prior to AA challenge. Control mice had Alzet minipumps implanted to deliver PBS for 7 days prior to AA challenge. The AA challenge was the same as described supra in Example 7. The results of the multiple dosing regimens and the 1 hr and 3 hr single dosing regimens were compared to the anti-inflammatory activity of CT-112 (SEQ. ID NO: 1) delivered via Alzet minipump set to deliver 60 mg/kg/day for 7 days using 5 animals per treatment.
In a separate experiment, the effect of multiple intraperitoneal injections of CT-112 (SEQ. ID NO: 1) at either 6, 3, 1 and 0.25 hr, or 16, 3, 1 and 0.25 hr prior to AA challenge was assessed. The results of both multi-dosing regimens were compared to both phenidone (100 mg/kg administered 15 min prior to AA challenge) and CT-112 (SEQ. ID NO: 1) administered via Alzet mini-pump (60 mg/kg/day for 7 days). For this latter study, the number of animals receiving the single injection of CT-112 (SEQ. ID NO: 1) was increased from 5 to 10.
Administration to mice of CT-112 (SEQ. ID NO: 1) (60 mg/kg/injection) via multiple subcutaneous injections prior to AA challenge was performed at:
In addition, other mice received only a single subcutaneous injection of CT-112 (SEQ. ID NO: 1) (60 mg/kg) at either 3 or 1 hr prior to AA challenge. […]

[1] = Table III, 1-day pump, 60 mg/kg/day
[2] = Table III, 3-day pump, 60 mg/kg/day
[3] = Table III, 7-day pump, 60 mg/kg/day
[4] = Table III, ip 60 mg/kg/injection at 24, 1, 0.25 hr prior to AA
[5] = Table IV, 7-day pump, 60 mg/kg/day
[6] = Table IV, ip 60 mg/kg/injection at 1, 0.25 hr prior to AA
[7] = Table IV, ip 60 mg/kg/injection at 3, 1, 0.25 hr prior to AA
[8] = Table IV, ip 60 mg/kg/injection at 6, 3, 1, 0.25 hr prior to AA
[9] = Table IV, single ip 60 mg/kg 3 hr prior to AA
[10] = Table V, 7-day pump, 60 mg/kg/day
[11] = Table V, ip at 6, 3, 1, 0.25 hr prior to AA
[12] = Table V, ip at 16, 3, 1, 0.25 hr prior to AA
[13] = Table VI, 7-day pump, 60 mg/kg/day
[14] = Table VI, sc 60 mg/kg/injection at 1, 0.25 hr prior to AA
[15] = Table VI, sc 60 mg/kg/injection at 3, 1, 0.25 hr prior to AA
[16] = Table VI, sc 60 mg/kg/injection at 6, 3, 1, 0.25 hr prior to AA
[17] = Table VI, single sc 60 mg/kg 1 hr prior to AA
[18] = Table VI, single sc 60 mg/kg 3 hr prior to AA
[19] = Table VII, 3 day pump, 60 mg/kg/day
[20] = Table VII, single ip 3 hr prior to AA
[21] = Table VII, single sc 0.25 hr prior to AA
[22] = Table VII, single sc 1 hr prior to AA
[23] = Table VII, single sc 3 hr prior to AA
[24] = Table VII, single sc 6 hr prior to AA
[25] = Table VIII, 3 day pump, 60 mg/kg/day
[26] = Table VIII, po 200 mg/kg/gavage at 1, 0.25 hr prior to AA
[27] = Table VIII, po 200 mg/kg/gavage at 6, 3, 1, 0.25 hr prior to AA
[28] = Table VIII, single po 200 mg/kg 1 hr prior to AA
[29] = Table VIII, single po 200 mg/kg 3 hr prior to AA
[30] = Table XI, 60 mg/kg/day minipump, 3 days

Sequence: TTSQVRPR [CT-112, octapeptide derived from platelet factor 4]
- % Reduction of Ear Swelling (0.05 mg/animal/day): 43.1%
- Ear Thickness (0.05 mg/animal/day, AA on day 6): 0.01577 ± 0.00155 in
- % Reduction of Ear Swelling (0.1 mg/animal/day): 43.1%
- Ear Thickness (0.1 mg/animal/day): 0.01577 ± 0.00191 in
- % Reduction of Ear Swelling (1.0 mg/animal/day): 89.0%
- Ear Thickness (1.0 mg/animal/day): 0.01128 ± 0.00291 in
- % Reduction of Ear Swelling (2.5 mg/animal/day): 95.6%
- Ear Thickness (2.5 mg/animal/day): 0.0106 ± 0.00175 in
- % Inhibition of Inflammation [1]: 112%
- Thickness Difference (Left-Right) [1]: -0.00074 ± 0.00119 in
- % Inhibition of Inflammation [2]: 119%
- Thickness Difference (Left-Right) [2]: -0.00115 ± 0.00058 in
- % Inhibition of Inflammation [3]: 108%
- Thickness Difference (Left-Right) [3]: -0.00051 ± 0.00116 in
- % Inhibition of Inflammation [4]: 62%
- Thickness Difference (Left-Right) [4]: 0.00226 ± 0.00124 in
- % Inhibition of Inflammation [5]: 94% and 93.9%
- Thickness Difference (Left-Right) [5]: 0.00033 ± 0.00065 in
- % Inhibition of Inflammation [6]: 64.4%
- Thickness Difference (Left-Right) [6]: 0.00192 ± 0.00148 in
- % Inhibition of Inflammation [7]: 73.8%
- Thickness Difference (Left-Right) [7]: 0.00141 ± 0.00138 in
- % Inhibition of Inflammation [8]: 73.2%
- Thickness Difference (Left-Right) [8]: 0.00144 ± 0.00126 in
- Thickness Difference (Left-Right) (Table IV, single ip 60 mg/kg 1 hr prior to AA): 0.00308 ± 0.00189 in
- % Inhibition of Inflammation (Table IV, single ip 60 mg/kg 1 hr prior to AA, 60 mg/kg): 43% and 42.9%
- % Inhibition of Inflammation [9]: 78.5%
- Thickness Difference (Left-Right) [9]: 0.00116 ± 0.001 in
- % Inhibition of Inflammation [10]: 100.5%
- Thickness Difference (Left-Right) [10]: -0.00003 ± 0.0012 in
- % Inhibition of Inflammation [11]: 61.4%
- Thickness Difference (Left-Right) [11]: 0.00249 ± 0.0017 in
- % Inhibition of Inflammation [12]: 56.3%
- Thickness Difference (Left-Right) [12]: 0.00283 ± 0.00218 in
- % Inhibition of Inflammation [13]: 87% and 86.5%
- Thickness Difference (Left-Right) [13]: 0.00083 ± 0.00084 in
- % Inhibition of Inflammation [14]: 68.4%
- Thickness Difference (Left-Right) [14]: 0.00195 ± 0.00131 in
- % Inhibition of Inflammation [15]: 68.7%
- Thickness Difference (Left-Right) [15]: 0.00193 ± 0.0007 in
- % Inhibition of Inflammation [16]: 76.2%
- Thickness Difference (Left-Right) [16]: 0.00147 ± 0.00041 in
- % Inhibition of Inflammation [17]: 71.8%
- Thickness Difference (Left-Right) [17]: 0.00174 ± 0.00128 in
- % Inhibition of Inflammation [18]: 65.5%
- Thickness Difference (Left-Right) [18]: 0.00213 ± 0.00089 in
- % Inhibition of Inflammation [19]: 67.0%
- Thickness Difference (Left-Right) [19]: 0.00127 ± 0.00128 in
- % Inhibition of Inflammation [20]: 37.2%
- Thickness Difference (Left-Right) [20]: 0.00242 ± 0.00187 in
- % Inhibition of Inflammation [21]: 34.7%
- Thickness Difference (Left-Right) [21]: 0.00252 ± 0.00128 in
- % Inhibition of Inflammation [22]: 44.5%
- Thickness Difference (Left-Right) [22]: 0.00214 ± 0.00122 in
- % Inhibition of Inflammation [23]: 36.9%
- Thickness Difference (Left-Right) [23]: 0.00243 ± 0.00107 in
- % Inhibition of Inflammation [24]: 69.6%
- Thickness Difference (Left-Right) [24]: 0.00117 ± 0.00066 in
- % Inhibition of Inflammation [25]: 88% and 88.4%
- Thickness Difference (Left-Right) [25]: 0.00058 ± 0.00086 in
- % Inhibition of Inflammation [26]: 51.9%
- Thickness Difference (Left-Right) [26]: 0.00241 ± 0.00124 in
- Thickness Difference (Left-Right) (Table VIII, po 200 mg/kg/gavage at 3, 1, 0.25 hr prior to AA): 0.0028 ± 0.00114 in
- % Inhibition of Inflammation (Table VIII, po 200 mg/kg/gavage at 3, 1, 0.25 hr prior to AA, 200 mg/kg): 44% and 44.1%
- % Inhibition of Inflammation [27]: 73.3%
- Thickness Difference (Left-Right) [27]: 0.00134 ± 0.00257 in
- % Inhibition of Inflammation [28]: 72.3%
- Thickness Difference (Left-Right) [28]: 0.00139 ± 0.00122 in
- % Inhibition of Inflammation [29]: 93.8%
- Thickness Difference (Left-Right) [29]: 0.00031 ± 0.00198 in
- % Inhibition of Inflammation (Table XI, 6 mg/kg/day minipump, 3 days): 40.8%
- Thickness Difference (Left-Right) (Table XI, 6 mg/kg/day minipump, AA 3 days after implantation): 0.00381 ± 0.00066 in
- % Inhibition of Inflammation [30]: 85.2%
- Thickness Difference (Left-Right) [30]: 0.00095 ± 0.00064 in
- Thickness Difference (Left-Right) (Table XIII, 60 mg/kg/day via Alzet pump for 24 hr): 0.00132 ± 0.00086 in
- Thickness Difference (Left-Right) (Table XIV, 60 mg/kg/day via Alzet pump for 24 hr): 0.00134 ± 0.00044 in
- Thickness Difference (Left-Right) (Table XV, 60 mg/kg/day via Alzet pump for 24 hr): 0.00154 ± 0.00092 in
- % Inhibition (Table XVI, single 6 mg/kg sc 4 hr prior to AA, ear thickness 1 hr post-challenge): 64.9%
- duration of activity (after single subcutaneous injection): greater than 6 hr
- inhibition of the inflammatory process (ip 60 mg/kg/injection, all multi-dosing regimens and the 3 hr single dosing regimen): approximately 70%
- reduction in inflammation (multiple ip injections at either 6, 3, 1, 0.25 hr or 16, 3, 1, 0.25 hr prior to AA): 56-61%
- inhibition of the inflammatory process (oral 200 mg/kg/gavage, all multi- and single-dosing regimens except 3, 1, 0.25 hr): 52-94%
